≈ marks a conversion by molar mass, not a printed value.
Experiments:
[1] = biological target: P2Y purinoceptor 1 (Homo sapiens, UniProt P47900); assay: Displacement of [beta-33P]-2MeS-ADP from human P2Y1 receptor transfected in HEK293 cells after 1 hr by scintillation counting method; format: cell-based
[2] = biological target: Voltage-gated inwardly rectifying potassium channel KCNH2 (Homo sapiens, UniProt Q12809); assay: Inhibition of human ERG flux
[3] = tested on: Platelet; assay: Inhibition of ADP-induced platelet aggregation in human platelet rich plasma; format: functional
[4] = Aqueous solubility of the compound in crystalline form in […] phosphate buffer at pH 6.5; format: physicochemical
[5] = Metabolic stability in rat liver microsomes assessed as compound remaining after 10 mins; format: ADME; conditions: read-out: Stability
[6] = Plasma protein binding in human plasma; format: ADME, cell-free; conditions: read-out: PPB (converted)
[7] = Permeability of the compound by PAMPA; format: ADME; conditions: read-out: permeability
[8] = Aqueous solubility of the compound in amorphous form in […] phosphate buffer at pH 6.5; format: physicochemical
[9] = Permeability from apical to basolateral side of human Caco2 cells; format: ADME, cell-based; conditions: Caco-2, read-out: permeability
[10] = Aqueous solubility of the compound in partially crystalline form in […] phosphate buffer at pH 6.5; format: physicochemical
[11] = biological target: Sodium-dependent noradrenaline transporter (Homo sapiens) (UniProt P23975); assay: Inhibition of NET (unknown origin); conditions: concentration not given here
[12] = Half life in rat at 2 mg/kg, iv and 5 mg/kg, po; format: ADME, organism-based; conditions: in vivo
[13] = biological target: D(2) dopamine receptor (Homo sapiens) (UniProt P14416); assay: Inhibition of D2 receptor (unknown origin); conditions: concentration not given here
[14] = Oral bioavailability in rat at 5 mg/kg; format: ADME, organism-based; conditions: in vivo
[15] = Clearance in rat at 2 mg/kg, iv and 5 mg/kg, po; format: ADME, organism-based; conditions: in vivo
[16] = Volume of distribution at steady state in rat at 2 mg/kg, iv and 5 mg/kg, po; format: ADME, organism-based; conditions: in vivo, read-out: Vdss
[17] = biological target: 5-hydroxytryptamine receptor 2A (Homo sapiens) (UniProt P28223); assay: Inhibition of 5-HT2A receptor (unknown origin); conditions: concentration not given here
Sequence of 5-hydroxytryptamine receptor 2A (Homo sapiens) (P28223 whole entry): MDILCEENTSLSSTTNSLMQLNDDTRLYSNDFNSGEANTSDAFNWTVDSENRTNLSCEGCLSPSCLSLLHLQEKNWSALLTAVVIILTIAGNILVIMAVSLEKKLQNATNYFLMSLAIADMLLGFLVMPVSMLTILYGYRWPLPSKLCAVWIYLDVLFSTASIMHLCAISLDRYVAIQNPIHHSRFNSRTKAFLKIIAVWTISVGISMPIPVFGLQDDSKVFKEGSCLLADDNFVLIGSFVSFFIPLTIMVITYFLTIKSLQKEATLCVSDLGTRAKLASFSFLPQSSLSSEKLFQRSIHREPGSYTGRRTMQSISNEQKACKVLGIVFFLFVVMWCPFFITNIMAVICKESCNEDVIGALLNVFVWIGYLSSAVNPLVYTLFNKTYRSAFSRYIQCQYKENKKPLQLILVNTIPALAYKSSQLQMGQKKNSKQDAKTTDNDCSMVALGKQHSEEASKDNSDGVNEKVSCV

Sequence of P2Y purinoceptor 1 (P47900 whole entry): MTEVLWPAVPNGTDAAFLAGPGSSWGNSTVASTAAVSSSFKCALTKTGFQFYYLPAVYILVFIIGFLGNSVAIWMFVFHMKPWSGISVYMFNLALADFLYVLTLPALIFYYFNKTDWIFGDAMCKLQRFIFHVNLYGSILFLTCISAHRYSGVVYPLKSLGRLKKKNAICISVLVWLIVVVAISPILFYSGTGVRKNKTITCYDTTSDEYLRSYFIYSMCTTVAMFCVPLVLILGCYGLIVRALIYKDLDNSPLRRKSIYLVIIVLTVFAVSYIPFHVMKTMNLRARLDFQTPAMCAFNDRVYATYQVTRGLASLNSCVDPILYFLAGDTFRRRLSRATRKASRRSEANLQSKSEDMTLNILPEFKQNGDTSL
Sequence of Voltage-gated inwardly rectifying potassium channel KCNH2 (Q12809 whole entry): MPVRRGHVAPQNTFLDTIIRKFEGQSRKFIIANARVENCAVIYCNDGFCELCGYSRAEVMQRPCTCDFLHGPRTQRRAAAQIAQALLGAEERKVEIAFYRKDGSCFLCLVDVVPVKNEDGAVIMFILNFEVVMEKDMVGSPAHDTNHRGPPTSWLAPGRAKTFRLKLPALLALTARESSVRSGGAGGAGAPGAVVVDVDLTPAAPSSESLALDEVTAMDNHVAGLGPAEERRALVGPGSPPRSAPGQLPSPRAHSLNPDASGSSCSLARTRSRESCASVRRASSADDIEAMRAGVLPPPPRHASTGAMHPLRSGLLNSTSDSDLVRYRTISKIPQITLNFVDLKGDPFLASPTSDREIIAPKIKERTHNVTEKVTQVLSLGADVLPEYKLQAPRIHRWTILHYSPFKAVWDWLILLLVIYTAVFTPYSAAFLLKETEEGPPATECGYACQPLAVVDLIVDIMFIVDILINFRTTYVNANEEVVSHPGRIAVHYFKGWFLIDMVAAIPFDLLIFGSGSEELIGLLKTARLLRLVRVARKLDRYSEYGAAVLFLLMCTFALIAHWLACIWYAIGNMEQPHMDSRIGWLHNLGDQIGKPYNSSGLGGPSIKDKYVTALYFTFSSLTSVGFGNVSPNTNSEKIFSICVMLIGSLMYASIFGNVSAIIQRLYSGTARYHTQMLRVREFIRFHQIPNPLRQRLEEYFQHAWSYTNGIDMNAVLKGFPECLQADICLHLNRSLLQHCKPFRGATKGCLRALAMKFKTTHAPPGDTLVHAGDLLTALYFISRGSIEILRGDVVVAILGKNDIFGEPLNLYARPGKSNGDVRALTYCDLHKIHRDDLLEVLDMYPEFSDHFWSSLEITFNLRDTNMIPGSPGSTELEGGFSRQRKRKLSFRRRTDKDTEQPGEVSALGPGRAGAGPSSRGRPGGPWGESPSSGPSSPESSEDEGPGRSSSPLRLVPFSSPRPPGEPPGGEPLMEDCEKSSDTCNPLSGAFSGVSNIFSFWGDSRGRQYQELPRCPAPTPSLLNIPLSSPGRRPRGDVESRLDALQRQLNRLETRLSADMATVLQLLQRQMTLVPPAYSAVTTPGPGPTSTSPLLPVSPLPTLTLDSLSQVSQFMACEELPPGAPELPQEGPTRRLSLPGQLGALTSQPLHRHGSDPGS
Sequence of Sodium-dependent noradrenaline transporter (Homo sapiens) (P23975 whole entry): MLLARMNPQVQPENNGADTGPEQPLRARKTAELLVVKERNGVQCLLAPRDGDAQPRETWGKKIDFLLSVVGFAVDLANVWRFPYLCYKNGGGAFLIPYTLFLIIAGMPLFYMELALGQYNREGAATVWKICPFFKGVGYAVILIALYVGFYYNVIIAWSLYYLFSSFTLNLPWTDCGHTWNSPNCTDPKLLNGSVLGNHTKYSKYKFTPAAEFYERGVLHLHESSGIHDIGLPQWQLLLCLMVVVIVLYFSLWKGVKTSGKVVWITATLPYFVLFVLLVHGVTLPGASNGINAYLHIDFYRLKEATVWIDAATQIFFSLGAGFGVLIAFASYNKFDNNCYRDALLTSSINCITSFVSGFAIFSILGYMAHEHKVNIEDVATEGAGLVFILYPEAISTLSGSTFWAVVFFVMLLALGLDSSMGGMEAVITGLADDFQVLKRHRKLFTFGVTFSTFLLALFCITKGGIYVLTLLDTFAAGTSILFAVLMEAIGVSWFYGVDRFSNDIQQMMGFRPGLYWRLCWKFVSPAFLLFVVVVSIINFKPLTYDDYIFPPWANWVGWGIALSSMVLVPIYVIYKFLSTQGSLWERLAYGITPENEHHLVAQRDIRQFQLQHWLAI
Sequence of D(2) dopamine receptor (Homo sapiens) (P14416 whole entry): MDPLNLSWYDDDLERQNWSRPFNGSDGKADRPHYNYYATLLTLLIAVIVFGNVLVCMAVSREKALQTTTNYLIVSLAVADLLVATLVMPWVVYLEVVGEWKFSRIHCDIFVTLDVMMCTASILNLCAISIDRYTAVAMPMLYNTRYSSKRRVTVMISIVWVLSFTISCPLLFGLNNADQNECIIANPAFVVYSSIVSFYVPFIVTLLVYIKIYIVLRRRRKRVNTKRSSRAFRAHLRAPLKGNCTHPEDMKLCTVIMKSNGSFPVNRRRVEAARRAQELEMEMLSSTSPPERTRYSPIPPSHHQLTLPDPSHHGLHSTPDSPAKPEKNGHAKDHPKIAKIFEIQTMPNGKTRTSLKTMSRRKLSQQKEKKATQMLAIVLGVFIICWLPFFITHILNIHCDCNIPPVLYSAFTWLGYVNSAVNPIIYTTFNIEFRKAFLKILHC

Ki [1]	IC50 [3]	SMILES	further results
560 nM		CC(C)N1CCc2c(cccc2Oc2ncccc2NC(=O)Nc2ccc(OC(F)(F)F)cc2)C1	
150 nM	7600 nM	CC(C)CN1CCC(c2ccccc2Oc2ncccc2NC(=O)Nc2ccc(OC(F)(F)F)cc2)CC1	IC50 [2]: 6000 nM
29 nM	> 10000 nM	CC(C)(C)CN1Cc2cccc(Oc3ncccc3NC(=O)Nc3ccc(OC(F)(F)F)cc3)c2C1	
11 nM	3100 nM	CC(C)(C)CN1CCc2c(cccc2Oc2ncccc2NC(=O)Nc2ccc(OC(F)(F)F)cc2)C1	solubility [4]: 3 µg/mL (≈ 5.83 µM); remaining at 10 min [5]: 27%
1040 nM		O=C(Nc1ccc(OC(F)(F)F)cc1)Nc1cccnc1Oc1cccc2c1CCN(Cc1ccncc1)C2	
3000 nM		O=C(Nc1ccc(OC(F)(F)F)cc1)Nc1cccnc1Oc1cccc2c1CCNC2	
1200 nM		O=C(Nc1ccc(OC(F)(F)F)cc1)Nc1cccnc1Oc1cccc2c1CCN(Cc1cccnc1)C2	
68 nM	> 10000 nM	CC(C)CN1Cc2cccc(Oc3ncccc3NC(=O)Nc3ccc(OC(F)(F)F)cc3)c2C1	
620 nM		CCCN1CCc2c(cccc2Oc2ncccc2NC(=O)Nc2ccc(OC(F)(F)F)cc2)C1	
3700 nM		CN1Cc2cccc(Oc3ncccc3NC(=O)Nc3ccc(OC(F)(F)F)cc3)c2C1	
2200 nM		O=C(Nc1ccc(OC(F)(F)F)cc1)Nc1cccnc1Oc1cccc2c1CCN(Cc1cccc(O)c1)C2	
260 nM		O=C(Nc1ccc(OC(F)(F)F)cc1)Nc1cccnc1Oc1cccc2c1CCN(Cc1ccccc1O)C2	
98 nM	12700 nM	O=C(Nc1ccc(OC(F)(F)F)cc1)Nc1cccnc1Oc1ccccc1C1CCN(Cc2ccccc2)CC1	
290 nM		O=C(Nc1ccc(OC(F)(F)F)cc1)Nc1cccnc1Oc1cccc2c1CCN(CCc1ccccc1)C2	
1100 nM		O=C(Nc1ccc(OC(F)(F)F)cc1)Nc1cccnc1Oc1cccc2c1CCN(Cc1ccccn1)C2	
55 nM		O=C(Nc1ccc(OC(F)(F)F)cc1)Nc1cccnc1Oc1cccc2c1CCN(Cc1ccccc1)C2	
60 nM		CC(C)CN1CCc2c(cccc2Oc2ncccc2NC(=O)Nc2ccc(OC(F)(F)F)cc2)C1	
57 nM	1200 nM	CN1Cc2cccc(Oc3ncccc3NC(=O)Nc3ccc(OC(F)(F)F)cc3)c2C1C(C)(C)C (stereo not given)	IC50 [2]: 7200 nM; fraction unbound [6]: 0.003; Papp [7]: 78.4 ×10⁻⁶ cm/s; solubility [8]: 270 µg/mL (≈ 539 µM); remaining at 10 min [5]: 6%; Papp A→B [9]: < 1.5 ×10⁻⁶ cm/s
190 nM		CC(C)(C)CCN1CCc2c(cccc2Oc2ncccc2NC(=O)Nc2ccc(OC(F)(F)F)cc2)C1	
3400 nM		O=C(Nc1ccc(OC(F)(F)F)cc1)Nc1cccnc1Oc1cccc2c1CCN(Cc1ccc(O)cc1)C2	
1700 nM		CCN1CCc2c(cccc2Oc2ncccc2NC(=O)Nc2ccc(OC(F)(F)F)cc2)C1	
16 nM	2400 nM	CC(C)(C)CN1CCC(c2ccccc2Oc2ncccc2NC(=O)Nc2ccc(OC(F)(F)F)cc2)CC1	solubility [10]: 105 µg/mL (≈ 194 µM); IC50 [2]: 4600 nM; fraction unbound [6]: 0.001; inhibition [11]: > 50%; Papp [7]: 28.6 ×10⁻⁶ cm/s; remaining at 10 min [5]: 96%; half-life [12]: 11 h; inhibition [13]: > 50%; bioavailability [14]: 89%; clearance [15]: 18 mL/min/kg; Vd [16]: 14 L/kg; inhibition [17]: > 50%

Source: ChEMBL document CHEMBL3091409, “Potent P2Y1 urea antagonists bearing various cyclic amine scaffolds” (Bioorg Med Chem Lett, 2013)
